Assay results reported in ChEMBL document CHEMBL5385875, “Tumor killing by a dietary curcumin mono-carbonyl analog that works as a selective ROS generator via TrxR inhibition” (Eur J Med Chem, 2023).
Activity calls are given as the source filed them. The rule behind the calls is not given here.

Legend:
[1] = Toxicity in BALB/c nude mouse assessed as effect on animal diet status at 5 to 15 mg/kg, ip measured every two days for 27 days; format: organism-based; conditions: in vivo, 648 h, dose 5-15 mg/kg, time 27 day
NCI-H460 [2] = assay: Cytotoxicity against human NCI-H460 cells assessed as reduction in cell viability at 0.5 to 1 uM measured after 48 hrs in presence of Z-VAD-fmk by MTT assay; format: functional, cell-based; conditions: dose 0.5-1 µM
NCI-H460 [3] = assay: Antitumor activity against human NCI-H460 cells xenografted in BALB/c nude mouse assessed as inhibition of tumor formation administered as IP dose and measured every two days for 27 days; format: functional; conditions: dose 5-15 mg/kg, time 27.0 day
NCI-H460 [4] = assay: Cytotoxicity against human NCI-H460 cells assessed as reduction in cell viability at 0.5 to 1 uM measured after 48 hrs in presence of necrostatin-1 by MTT assay; format: functional, cell-based; conditions: dose 0.5-1 µM
[5] = Toxicity in BALB/c nude mouse assessed as effect on body weight at 5 to 15 mg/kg, ip measured every two days for 27 days; format: organism-based; conditions: in vivo, 648 h, dose 5-15 mg/kg, time 27 day
[6] = biological target: Thioredoxin reductase (Homo sapiens) (UniProt Q16881+Q9NNW7+Q86VQ6); assay: Inhibition of TrxR in human NCI-H460 cells measured after 6 hrs by fluorescence microscopy based analysis; format: cell-based; conditions: dose 0.5-2 µM
NCI-H460 [7] = assay: Induction of ROS accumulation in human NCI-H460 cells assessed as reduction in GSH levels by measuring yellow green fluorescence incubated for 9 hrs by fluorescence microscope based analysis; format: functional, cell-based
MRC5 [8] = assay: Induction of intracellular ROS accumulation in human MRC5 cells at upto 2 uM incubated for 6 hrs by DCFH-DA dye based fluorescence assay; format: functional, cell-based
MRC5 [9] = assay: Induction of ROS accumulation in human MRC5 cells assessed as reduction in GSH levels by measuring yellow green fluorescence incubated for 9 hrs by fluorescence microscope based analysis; format: functional, cell-based
[10] = Inhibition of TrxR protein expression in human NCI-H460 cells at 2 uM measured after 6 hrs by immunoblot analysis relative to control; format: functional
NCI-H460 [11] = assay: Induction of intracellular ROS accumulation in human NCI-H460 cells at 0.5 to 2 uM by DCFH-DA dye based fluorescence assay; format: functional, cell-based; conditions: dose 0.5-2 µM, time 1-12 hrs, TDE = time-dependent effect
NCI-H460 [12] = assay: Induction of intracellular ROS accumulation in human NCI-H460 cells at 1 to 2 uM measured after 6 hrs in presence of VE by DCFH-DA dye based fluorescence assay; format: functional, cell-based; conditions: dose 1-2 µM
[13] = Toxicity in BALB/c nude mouse assessed as effect on liver at 5 to 15 mg/kg, ip measured every two days for 27 days; format: organism-based; conditions: in vivo, 648 h, dose 5-15 mg/kg, time 27 day
NCI-H460 [14] = assay: Induction of apoptosis in human NCI-H460 cells assessed as reduction of mitochondrial membrane potential at 0.5 to 2 uM incubated for 12 to 36 hrs in presence of NAC by JC-1 staining based flow cytometry analysis; format: functional, cell-based; conditions: dose 0.5-2 µM, time 12-36 hrs
[15] = Toxicity in BALB/c nude mouse assessed as effect on heart at 5 to 15 mg/kg, ip measured every two days for 27 days; format: organism-based; conditions: in vivo, 648 h, dose 5-15 mg/kg, time 27 day
NCI-H460 [16] = assay: Downregulation of Bcl-2 expression in human NCI-H460 cells at 1 to 2 uM measured after 48 hrs by immunoblot analysis; format: functional, cell-based; conditions: dose 1-2 µM
NCI-H460 [17] = assay: Induction of ferroptosis in human NCI-H460 cells assessed as increase in MDA levels at 2 uM measured after 40 hrs in presence of Fer-1 by MDA assay; format: functional, cell-based
[18] = Toxicity in BALB/c nude mouse assessed as effect on kidney at 5 to 15 mg/kg, ip measured every two days for 27 days; format: organism-based; conditions: in vivo, 648 h, dose 5-15 mg/kg, time 27 day
[19] = Selectivity index, ratio of IC50 for human MRC5 cells to IC50 for human NCI-H460 cells; format: toxicity; conditions: MRC5 cells versus NCI-H460 cells, read-out: Ratio IC50
HT-1080 = assay: Cytotoxicity against human HT-1080 cells assessed as reduction in cell viability incubated for 48 hrs by MTT assay; format: functional, cell-based; conditions: HT-1080, 48 h
NCI-H460 [20] = assay: Cytotoxicity against human NCI-H460 cells assessed as reduction in cell viability at 0.5 to 1 uM measured after 48 hrs in presence of 3-methuladenine by MTT assay; format: functional, cell-based; conditions: dose 0.5-1 µM
NCI-H460 [21] = assay: Induction of ferroptosis in human NCI-H460 cells assessed as increase in intracellular […] by measuring increase in red fluorescence intensity at 0.5 uM incubated for 40 hrs in presence of NAC by C11-BODIPY staining based microscopy analysis; format: functional, cell-based
NCI-H460 [22] = assay: Induction of ferroptosis in human NCI-H460 cells assessed as increase in MDA levels at 2 uM measured after 40 hrs in presence of erastin by MDA assay; format: functional, cell-based
[23] = Toxicity in BALB/c nude mouse assessed as effect on liver at 5 to 15 mg/kg, ip measured every two days for 27 days by H and E staining based analysis; format: organism-based; conditions: in vivo, 648 h, dose 5-15 mg/kg, time 27 day
NCI-H460 [24] = assay: Induction of ferroptosis in human NCI-H460 cells assessed as reduction in GPX4 protein expression at 1 to 2 uM measured after 24 hrs in presence of NAC by immunoblot analysis; format: functional, cell-based; conditions: dose 1-2 µM
NCI-H460 [25] = assay: Cytotoxicity against human NCI-H460 cells assessed as reduction in cell viability at 0.5 to 2 uM incubated for 48 hrs in presence of dithiothreitol by MTT assay; format: functional, cell-based; conditions: dose 0.5-2 µM
NCI-H460 [26] = assay: Cytotoxicity against human NCI-H460 cells assessed as reduction in cell viability at 0.5 to 1 uM measured after 48 hrs in presence of erastin by MTT assay; format: functional, cell-based; conditions: dose 0.5-1 µM
NCI-H460 [27] = assay: Induction of intracellular ROS accumulation in human NCI-H460 cells at 1 to 2 uM measured after 6 hrs in presence of NAC by DCFH-DA dye based fluorescence assay; format: functional, cell-based; conditions: dose 1-2 µM
NCI-H460 [28] = assay: Cytotoxicity against human NCI-H460 cells assessed as reduction in cell viability at 0.5 to 2 uM incubated for 48 hrs in presence of N-acetylcysteine by MTT assay; format: functional, cell-based; conditions: dose 0.5-2 µM

## O=C1/C(=C/c2cccc(C(F)(F)F)c2)CNC/C1=C\c1cccc(C(F)(F)F)c1
[1]
  Activity: Non-Toxic
NCI-H460 [2]
  Activity: Active
NCI-H460 [3]
  Activity: Dose-Dependent Effect
NCI-H460 [4]
  Activity: inactive
[5]
  Activity: Non-Toxic
[6]
  inhibition: Dose-Dependent Effect
NCI-H460 [7]
  Activity: Dose-Dependent Effect
MRC5 [8]
  Activity: inactive
MRC5 [9]
  Activity: inactive
[10]
  inhibition at 2 µM: 69%
NCI-H460 [11]
  Activity: Tde
NCI-H460 [12]
  Activity: inactive
[13]
  Activity: Non-Toxic
NCI-H460 [14]
  Activity: inactive
[15]
  Activity: Non-Toxic
NCI-H460 [16]
  Activity: Active
NCI-H460 [17]
  Activity: inactive
[18]
  Activity: Non-Toxic
[19]
  selectivity ratio: 32
HT-1080
  IC50: 930 nM
NCI-H460 [20]
  Activity: inactive
NCI-H460 [21]
  Activity: inactive
NCI-H460 [22]
  Activity: Active
[23]
  Activity: Non-Toxic
NCI-H460 [24]
  Activity: inactive
NCI-H460 [25]
  Activity: inactive
NCI-H460 [26]
  Activity: Active
NCI-H460 [27]
  Activity: inactive
NCI-H460 [28]
  Activity: inactive
